Reference: US20210317090A1, “AMINO ACID DEPLETION AGENTS AS ANTIPROLIFERATIVE AGENTS” (University of Central Florida Research Foundation, Inc., priority 2018, published 2021)
pIC50: −log10 of the molar value.

Key:
[1] = test system: L3.6pl human pancreatic cancer cells; conditions: L3.6pl cells, CDAP 100 μM (ref 10); cited from earlier work
L3.6pl cells [2] = conditions: CDAP 100 μM (ref 10); cited from earlier work
[3] = test system: L3.6pl human pancreatic cancer cells; assay: Cytotoxicity dose-response (MTS) in L3.6pl cells; assay type: cell-based; conditions: L3.6pl cells, previously determined; read-out: 72 h IC50
Protocol: L3.6pl Studies. Compounds 9 and 10 were evaluated in the metastatic human pancreatic cancer cell line, L3.6pl. L3.6pl has a K-ras mutation, and high polyamine uptake activity.^7 A dose-response curve was obtained for each compound in L3.6pl cells to determine the 72 h L3.6pl IC50 value, described as the dose at which L3.6pl cells were 50% viable compared to the untreated control.
Regarding the biological studies performed in the following examples, it is noted that CHO K1, CHO-MG, and L3.6pl cells were grown in RPMI 1640 medium supplemented with 10% fetal bovine serum (FBS) and 1% penicillin/streptomycin. All cells were grown at 37° C. under a humidified 5% CO2 atmosphere. Aminoguanidine (1 mM used for CHO K1 and CHOMG cells and 250 μM for L3.6pl) was added to the growth medium to prevent oxidation of the compounds of the bovine serum amine oxidase enzyme that is present in calf serum. The cells used were in early to mid log phase and CHO and CHOMG were plated out at 1000 cells/well, whereas the L3.6pl cells were plated at 500 cells/well in a 96 well plate format.
This example illustrates aspects according to various embodiments pertaining to IC50 determinations and cell viability studies. Cell growth was assayed in sterile 96-well microtiter plates (Costar 3599, Corning, N.Y.). CHO K1 or CHOMG cells were plated at 1,000 cells/70 μL and L3.6pl cells at 500 cells/70 μL. The drug solutions of appropriate concentration in phosphate buffered saline (PBS) were added 10 μL per well after overnight incubation. After drug exposure (e.g., for 48 h for CHO K1 and CHO-MG and 48 h or 72 h for L3.6pl), cell growth was determined by measuring formazan formation from the 3-(4,5dimethylthiazol-2-yl)-5-(3-carboxymethoxyphenyl)-2-(4-sulfenyl)-2H tetrazolium, inner salt (MTS) using SynergyMx Biotek microplate reader for absorbance (490 nm) measurements.^27 All experiments were run in triplicate.

L3.6pl cells [4] = assay: Intracellular polyamine and Ant-44 levels (N-dansylation, HPLC) in L3.6pl cells; assay type: cell-based, human; conditions: Ant-44 only control (2 μM), 72 h
Protocol: One explanation for the enhanced potency was that compound 10 (1666.255) increased polyamine import and, as a result, may have increased intracellular Ant-44 levels. To test this hypothesis, L3.6pl cells were dosed with a fixed concentration of Ant-44 (2 μM) alone and in combination with increasing concentrations of compound 10 (1666.255) to explore how this combination therapy affected intracellular polyamine pools and Ant-44 import.
FIG. 7 is an example according to various embodiments, illustrating both single and combination therapies in L3.6pl cells with Ant-44 and compound 10 (1666.255) after 72 h incubation. Polyamine and Ant-44 levels (expressed as nmoles/mg protein) and relative % viability versus an untreated control were observed after 72 h incubation at 37° C. The untreated control was run in parallel and polyamine levels determined in duplicate and % cell viability in triplicate. Ant-44 was dosed at a fixed concentration of 2 μM and compound 10 (1666.255) at increasing concentrations. Cell viability tracked well with total intracellular polyamine levels (sum of putrescine, spermidine and spermine).
It was concluded that compound 10 was neither acting as a PTI nor as a polyamine import agonist. How then could it lead to intracellular polyamine depletion? […] To test this hypothesis, L3.6pl cells were dosed with increasing concentrations of compound 10 (1666.255) without Ant44. If compound 10 (1666.255) was acting on polyamine pools, one should see a reduction in total polyamine levels as well as decreased cell viability in a dose dependent manner upon increasing levels of 10. Therefore, the toxicity of compound 10 and intracellular polyamine levels after 72 h exposure to 10 were measured (FIG. 8).
FIG. 8 is an example according to various embodiments, illustrating intracellular polyamine levels (expressed as nmoles polyamine/mg protein) in L3.6pl cells dosed with increasing concentrations of compound 10 (1666.255) after cells were incubated for 72 h at 37° C. The untreated control was run in parallel and polyamine levels determined in duplicate via N-dansylation and HPLC. The data was averaged and reported as nmol polyamine (PA)/mg protein.
This example illustrates aspects according to various embodiments pertaining to a 72 h experiment with Compound 10 in L3.6pl cells. Ten milliliters of a cell suspension containing L3.6pl human pancreatic cancer cells (50,000 cells/mL) and aminoguanidine (1 mM) were placed in treated plastic Petri dishes (d=9 cm) and incubated overnight at 37° C. After 24 h, the cells were dosed with compound 10 at 2 μM, 5 μM, or 7 μM. (Note: Stock solutions of 10 at 2, 5, and 7 mM were dissolved in phosphate buffered saline (PBS) and were filtered through a 0.2 μm filter prior to use. The experiments were maintained with a total volume of 10.01 mL where 10 mL of the cell suspension was placed in a plastic dish and each compound or the equivalent PBS volume was added to make up the total volume 10.01 mL for each dish. For example, for the control experiment PBS (10 μL) was added to make up the total volume (10 mL+10 μL=10.01 mL). After 72 h incubation, the cells were collected first by pipetting off the supernatant containing floating dead cells from the culture dish as well as media and placing them into 15 mL tubes. The supernatant containing floating cells was centrifuged (4 min at 1,000 rpm). The cell-free supernatant (supernatant #1) was collected into a new 15 mL tube and quantified (˜8.6 mL) and was then stored frozen and was later quantified by LCMS to investigate the media composition of particular polyamine and amino acid analytes. The attached cells on the dish were washed with PBS (5 mL). The PBS wash was removed by suction and additional PBS (2 mL) was added and again suctioned off to provide twice-washed cells still adhered to the dish. Trypsin (2 mL) was then added to each dish and incubated (3-5 min) until all the cells were detached. Fresh media (8 mL) was added to quench the trypsin. […]

[5] = test system: polyamine transport system (PTS); conditions: CHO vs CHO-MG (ref 17); cited from earlier work

SMILES | viability [1] | Intracellular Spermine (L3.6pl cells [2]) | pIC50 [3] | intracellular level of Ant-44 (L3.6pl cells [4]) | preference for CHO cell line over CHO-MG (IC50 comparison) [5]
NCCCNC1CCCCC1 [CDAP, N-(3-aminopropyl)-cyclohexylamine] | 100% | no detectable spermine | – | – | –
Cl.NCCCCNCCCCNCc1c2ccccc2cc2ccccc12 [Ant-44, reference compound] | – | – | 5.40 | 2.15±0.10 nmol Ant44/mg protein | ~150 fold
